Test results taken from patent publication US7625889B2, “Substituted bis aryl and heteroaryl compounds as selective 5HT2A antagonists” (Aventis Pharmaceuticals Inc., priority 2005, dated 2009).
Where a name gives a salt, the structure may show the parent alone.

biological target: T1, human 5HT2A receptor (Homo sapiens, UniProt P28223); assay: Receptor Binding Assay, 5HT2A ([3H]N-methyl spiperone); conditions: BHK cells expressing human 5HT2A receptor, 2.5 nM [3H]N-methyl spiperone, 37° C.
T1 construct: expressed in transfected cells
T1 sequence (P28223 whole entry): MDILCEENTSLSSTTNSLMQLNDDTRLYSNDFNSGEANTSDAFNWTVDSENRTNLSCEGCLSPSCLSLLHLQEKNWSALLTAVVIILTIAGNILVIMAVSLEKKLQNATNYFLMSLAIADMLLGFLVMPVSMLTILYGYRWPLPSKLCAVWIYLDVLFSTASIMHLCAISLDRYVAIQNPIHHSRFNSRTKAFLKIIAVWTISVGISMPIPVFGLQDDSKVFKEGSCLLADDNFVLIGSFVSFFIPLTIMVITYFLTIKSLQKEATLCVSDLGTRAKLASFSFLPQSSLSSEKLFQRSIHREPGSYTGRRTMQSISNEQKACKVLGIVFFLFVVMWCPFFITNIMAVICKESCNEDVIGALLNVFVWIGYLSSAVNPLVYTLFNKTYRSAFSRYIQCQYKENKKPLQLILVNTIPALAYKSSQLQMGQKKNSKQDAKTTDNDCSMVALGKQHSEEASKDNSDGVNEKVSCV
Description: Cell Culture: BHK cells stably expressing the human 5HT2A receptor were maintained in Dulbecco's Modified Eagle's Medium supplemented with […] Geneticin, 1% Sodium Pyruvate, 1% Pen-Strep and 10% Fetal Calf Serum, and treated with 5 mM sodium butyrate for 24 h to increase receptor expression before harvesting. Cells were harvested by mechanical scraping, washed with Phosphate Buffered Saline, and stored at −80° C. in 10% DMSO in 1 mg/mil aliquots until used. Protein determination was made according to Lowry.
Receptor Binding Assays: The 5HT2A and D2L assays were conducted at 37° C. in a Tris buffer containing salts (50 mM Tris Buffer, pH 7.7; 120 mM NaCl; 5 mM KCl; 2 mM CaCl2; 1 mM MgCl2). Cell membranes (previously prepared and frozen) were rapidly thawed. Membranes were diluted to an appropriate concentration (to produce 100 μg protein/assay point for 5HT2A, and 58 μg protein/assay point for D2L) in Tris buffer and homogenized. Assays were conducted on 96-well plates, using 2.5 and 1 nM [^3H]N-methyl spiperone as radioligand for 5HT2A and D2L assays, respectively. Plates were incubated at 37° C. in a shaking water bath for 30 and 60 min, for 5HT2A and D2L, respectively. Nonspecific binding was defined using 100 μM methylsergide and eticlopride, for 5HT2A and D2L, respectively.
Assays were terminated by rapid filtration through Millipore MAFB or MAFC (5HT2C) filter plates (presoaked in 50 mM Tris HCl, pH 7.7, with 0.1% Brij) using a Millipore Cell Harvester. The filter plates were then washed with ice-cold 50 mM Tris buffer, pH 7.7, and allowed to dry overnight. 50 μl of Microscint scintillation cocktail were added and the plates were counted in a Packard Topcount scintillation counter.
IC50 and Ki calculations were performed using nonlinear regression one-site competition analysis (GraphPad, Prism), with top and bottom limits held constant at 0% and 100% inhibition, respectively. The percent inhibition at each drug concentration was the average of duplicate determinations. Except where indicated, each determination was performed 2 to 5 times.

Row | Ki [nM] | Compound
1 | 13.8 | CN1CCN(Cc2cc(-c3ccc4[nH]ccc4c3)ccc2F)C(c2ccc(C(F)(F)F)cc2)C1 (stereo not drawn) [Example 15]
2 | 0.88 | CN1CCC(N(Cc2cc(-c3ccc4[nH]ncc4c3)ccc2F)C(=O)c2ccc(F)cc2)CC1 [Example 102, 4-Fluoro-N-[2-fluoro-5-(1H-indazol-5-yl)-benzyl]-N-(1-methyl-piperidin-4-yl)-benzamide]
3 | 3.8 | CN1CCC(N(Cc2cc(-c3ccc4[nH]ccc4c3)ccc2F)C(=O)c2ccncn2)CC1 [Example 105, Pyrimidine-4-carboxylic acid [2-fluoro-5-(1H-indol-5-yl)-benzyl]-(1-methyl-piperidin-4-yl)-amide]
4 | 3.14 | O=C(c1ccc(F)cc1)N(Cc1cc(-c2ccc3[nH]nnc3c2)ccc1F)C1CCN(C2CC2)CC1 [Example 68, N-[5-(1H-Benzotriazol-5-yl)-2-fluoro-benzyl]-N-(1-cyclopropyl-piperidin-4-yl)-4-fluoro-benzamide]
5 | 0.29 | CN1CCN(Cc2cncc(-c3ccc4[nH]ncc4c3)c2)[C@@H](c2ccc(F)cc2)C1 [Example 99, 5-{5-[2S-(4-Fluoro-phenyl)-4-methyl-piperazin-1-ylmethyl]-pyridin-3-yl}-1H-indazole]
6 | 227 | CN1CCN(Cc2cccc(-c3ccc4[nH]nnc4c3)c2)CC1 [Example 9]
7 | 1.16 | CN1CCC(N(Cc2ccc(F)cc2)Cc2cc(-c3ccc4[nH]nnc4c3)ccc2F)CC1 [Example 88, [5-(1H-Benzotriazol-5-yl)-2-fluoro-benzyl]-(4-fluoro-benzyl)-(1-methyl-piperidin-4-yl)-amine hydrochloride]
8 | 0.92 | CCN1CCC[C@@H]1CN(Cc1cc(-c2ccc3[nH]c(=O)oc3c2)ccc1F)C(=O)c1ccc(F)cc1 [Example 31]
9 | 33.5 | CN(C)CCN(Cc1ccccc1)Cc1cccc(-c2ccc3[nH]c(=O)n(C)c(=O)c3c2)c1 [Example 4]
10 | 0.58 | CN1CCC(N(Cc2ccc(F)c(-c3ccc4[nH]ccc4c3)c2)C(=O)c2ccc(F)cc2)CC1 [Example 40]
11 | 0.6 | CN1CCCC(N(Cc2cc(-c3ccc4[nH]ncc4c3)ccc2F)C(=O)c2ccc(F)cc2)C1 (stereo not drawn) [Example 64]
12 | 2.37 | CN(C)CCN(Cc1ccc(F)cc1)Cc1cc(-c2ccc3[nH]ccc3c2)ccc1F [Example 72]
13 | 14.2 | CCN1CCC[C@H]1CN(Cc1ccc(F)cc1)Cc1cc(-c2ccc3[nH]nnc3c2)ccc1F [Example 87, [5-(1H-Benzotriazol-5-yl)-2-fluoro-benzyl]-(1-ethyl-pyrrolidin-2S-ylmethyl)-(4-fluoro-benzyl)-amine hydrochloride]
14 | 1.1 | CN(C)CCN(Cc1cccc(-c2ccc3[nH]c(=O)sc3c2)c1)C(=O)c1ccccc1 [Example 32]
15 | 85 | CC(C)Oc1cccc(C(=O)N(Cc2cc(-c3ccc4[nH]ccc4c3)ccc2F)C2CCN(C)CC2)c1 [Example 111, N-[2-Fluoro-5-(1H-indol-5-yl)-benzyl]-3-isopropoxy-N-(1-methyl-piperidin-4-yl)-benzamide]
16 | 6.51 | O=C(c1cccs1)N(CCN1CCCC1)Cc1cc(-c2ccc3[nH]nnc3c2)ccc1F [Example 56]
17 | 0.6 | CN(C)CCN(Cc1ccc(F)cc1)Cc1cncc(-c2ccc3[nH]c(=O)oc3c2)c1 [Example 48]
18 | 2.7 | CN(C)CCN(Cc1ccccc1)Cc1cccc(-c2ccc3[nH]ncc3c2)c1 [Example 6]
19 | 0.37 | Fc1ccc(-c2ccc3[nH]nnc3c2)cc1CN(Cc1cccs1)C1CCNCC1 [Example 84, [5-(1H-Benzotriazol-5-yl)-2-fluoro-benzyl]-piperidin-4-yl-thiophen-2-ylmethyl-amine]
20 | 0.89 | CN1CCN(Cc2cc(-c3ccc4[nH]ncc4c3)ccc2F)[C@@H](c2ccc(F)cc2)C1 [Example 96, 5-{4-Fluoro-3-[2S-(4-fluoro-phenyl)-4-methyl-piperazin-1-ylmethyl]-phenyl}-1H-indazole]

Row | Ki [nM] | Compound
21 | 85 | CN1CCN(C(=O)c2cc(-c3ccc4[nH]ccc4c3)ccc2F)[C@@H](c2ccc(F)cc2)C1 [Example 171, [2-Fluoro-5-(1H-indol-5-yl)-phenyl]-[2S-(4-fluoro-phenyl)-4-methyl-piperazin-1-yl]-methanone]
22 | 2.16 | CC(C)N1CCC(N(Cc2cc(-c3ccc4[nH]nnc4c3)ccc2F)C(=O)c2ccc(F)cc2)CC1 [Example 67, N-[5-(1H-Benzotriazol-5-yl)-2-fluoro-benzyl]-4-fluoro-N-(1-isopropyl-piperidin-4-yl)-benzamide]
23 | 0.31 | O=C(c1ccc(F)cc1)N(CCN1CCCC1)Cc1cc(-c2ccc3[nH]ncc3c2)ccc1F [Example 55]
24 | 22.6 | CN(C)CCN(Cc1ccc(F)cc1)Cc1cc(-c2ccc3[nH]cc(C#N)c3c2)ccc1F [Example 140, 5-(3-{[(2-Dimethylamino-ethyl)-(4-fluoro-benzyl)-amino]-methyl}-4-fluoro-phenyl)-1H-indole-3-carbonitrile trifluoro-acetate]
25 | 0.99 | Fc1ccc([C@H]2CNCCN2Cc2cc(-c3ccc4[nH]nnc4c3)ccc2F)cc1 [Example 45]
26 | 0.42 | CN1CCC(N(Cc2ccc(F)cc2)Cc2cc(-c3ccc4[nH]ncc4c3)ccc2F)CC1 [Example 90, (4-Fluoro-benzyl)-[2-fluoro-5-(1H-indazol-5-yl)-benzyl]-(1-methyl-piperidin-4-yl)-amine]
27 | 0.48 | Fc1ccc([C@H]2CNCCN2Cc2cncc(-c3ccc4[nH]ccc4c3)c2)cc1 [Example 114, 5-{5-[2S-(4-Fluoro-phenyl)-piperazin-1-ylmethyl]-pyridin-3-yl}-1H-indole acetate]
28 | 0.42 | Fc1ccc(CN(Cc2cc(-c3ccc4[nH]nnc4c3)ccc2F)C2CCNCC2)cc1 [Example 85, [5-(1H-Benzotriazol-5-yl)-2-fluoro-benzyl]-(4-fluoro-benzyl)-piperidin-4-yl-amine]
29 | 85 | CC(C)Oc1ccc(C(=O)N(Cc2cc(-c3ccc4[nH]ccc4c3)ccc2F)C2CCN(C)CC2)cc1 [Example 110, N-[2-Fluoro-5-(1H-indol-5-yl)-benzyl]-4-isopropoxy-N-(1-methyl-piperidin-4-yl)-benzamide]
30 | 0.67 | O=C(c1ccc(F)cc1)N(Cc1cc(-c2ccc3[nH]nnc3c2)ccc1F)C1CCNCC1 [Example 66]
31 | 6 | CN1CCC(N(Cc2cc(-c3ccc4[nH]ccc4c3)ccc2F)C(=O)c2ccc(OC(F)(F)F)cc2)CC1 [Example 112, N-[2-Fluoro-5-(1H-indol-5-yl)-benzyl]-N-(1-methyl-piperidin-4-yl)-4-trifluoromethoxy-benzamide]
32 | 9 | CN1CCC(N(Cc2cc(-c3ccc4[nH]ccc4c3)ccc2F)C(=O)c2cccnn2)CC1 [Example 106, Pyridazine-3-carboxylic acid [2-fluoro-5-(1H-indol-5-yl)-benzyl]-(1-methyl-piperidin-4-yl)-amide]
33 | 0.39 | O=C(c1ccc(F)cc1)N(CCN1CCCC1)Cc1cc(-c2ccc3[nH]nnc3c2)ccc1F [Example 101, N-[5-(1H-Benzotriazol-5-yl)-2-fluoro-benzyl]-4-fluoro-N-(2-pyrrolidin-1-yl-ethyl)-benzamide]
34 | 0.6 | O=c1[nH]c2ccc(-c3ccc(F)c(CN4CCNCC4c4cccs4)c3)cc2o1 (stereo not drawn) [Example 43]
35 | 74.8 | CN(C)CCN(Cc1ccccc1)Cc1cccc(-c2ccc3[nH]cnc3c2)c1 [Example 18]
36 | 76.5 | CN(C)CCCN(Cc1ccccc1)Cc1cccc(-c2ccc3[nH]cnc3c2)c1 [Example 19]
37 | 1.13 | CN(C)CCN(Cc1cc(-c2ccc3c(c2)CCN3)ccc1F)C(=O)c1ccc(F)cc1 [Example 60]
38 | 1.05 | CN(C)CCN(Cc1cncc(-c2ccc3[nH]ccc3c2)c1)C(=O)c1ccc(F)cc1 [Example 74, N-(2-Dimethylamino-ethyl)-4-fluoro-N-[5-(1H-indol-5-yl)-pyridin-3-ylmethyl]-benzamide trifluoroacetate]
39 | 3.2 | CN1CCN(Cc2cc(-c3ccc4[nH]cc(C#N)c4c3)ccc2F)[C@@H](c2ccc(F)cc2)C1 [Example 175, 5-{4-Fluoro-3-[2S-(4-fluoro-phenyl)-4-methyl-piperazin-1-ylmethyl]-phenyl}-1H-indole-3-carbonitrile]

Row | Compound | Ki [nM]
40 | CN1C2CCC1CC(N(Cc1cc(-c3ccc4[nH]ncc4c3)ccc1F)C(=O)c1ccc(F)cc1)C2 (stereo not drawn) [Example 58] | 1.23
41 | O=C(c1ccc(F)cc1)N(Cc1cc(-c2ccc3[nH]ccc3c2)ccc1F)[C@H]1CN2CCC1CC2 [Example 77, N-(1-Aza-bicyclo[2.2.2]oct-3R-yl)-4-fluoro-N-[2-fluoro-5-(1H-indol-6-yl)-benzyl]-benzamide] | 0.49
42 | O=C(c1ccc(F)cc1)N(Cc1cc(-c2ccc3[nH]ncc3c2)ccc1F)[C@H]1CN2CCC1CC2 [Example 103, N-(1-Aza-bicyclo[2.2.2]oct-3R-yl)-4-fluoro-N-[2-fluoro-5-(1H-indazol-5-yl)-benzyl]-benzamide] | 1.01
